Where only a bound is given, the exact number is not on record here.

The values below come from patent publication US20240018146A1, “COMPOSITIONS AND METHODS OF USING THE SAME FOR TREATMENT OF NEURODEGENERATIVE AND MITOCHONDRIAL DISEASE” (MITOKININ, INC., priority 2020, published 2024).

The subject of data set [1] is HeLa MKYP cells. In words: Human mitophagy assay (HeLa mKeima assay, FACS). Type of data set: cell-based. The settings on record: Homo sapiens, HeLa; read-out: Mitophagy induction EC50. The essentials: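 HeLa cells carrying the pH-sensitive mtKeima tag incubated 16 h with compound at several concentrations, then 1 uM FCCP/oligomycin for 6 h. FACS detects mitochondria in lysosomes through the Keima emission shift, quantified as percentage of cells in mitophagy.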

Data set [2] deals with HeLa MKYP cells. In words: Cell death measured by DAPI staining, with 1 μM FCCP/oligomycin or no toxin (no FO). It is filed as cell-based. The procedure, abridged:
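HeLa MKYP cells were treated with compounds alongside 1 μM FCCP/oligomycin or no toxin for 6 or 6.5 h. Cell death was scored by DAPI staining, with H2O2 treatment as the death control.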

Turning to `FC(F)(F)c1cc2c(N[C@@H]3c4ccccc4OC[C@H]3N3CCOCC3)ncnc2[nH]1` [EP-0040252], the 50% effective concentration (EC50) (as a rule, the concentration giving half of the maximal effect) in data set [1] was 1.11 µM. Besides, in data set [2], the “Highest safe dose (cytotoxicity; no FO; safe means DAPI+ <20%)” value worked out at 25.0 µM and the “Max % death with 1 μM FO” value stood at 9.1%.
The corresponding values for `Fc1ccc2c(c1)OC[C@H](N1CCOCC1)[C@H]2Nc1ncnc2[nH]c(C3CC3)cc12` [EP-0040500] are 0.99 µM, 25.0 µM and 8.6%.
As for `C[C@@]12COC[C@]1(C)CN(C1CCc3ccccc3C1Nc1ncnc3[nH]c(C(F)(F)F)cc13)C2` (stereo partly drawn) [EP-0040523], in data set [1], the 50% effective concentration (EC50) stood at 2.73 µM. In addition, in data set [2], the “Highest safe dose (cytotoxicity; no FO; safe means DAPI+ <20%)” value turned out to be 25.0 µM and the “Max % death with 1 μM FO” value turned out to be 39.0%.
As for `C[C@@]12COC[C@]1(C)CN(C1COc3ccccc3C1Nc1ncnc3[nH]c(C(F)(F)F)cc13)C2` (stereo partly drawn) [EP-0040524], the EC50 in data set [1] came out at 2.68 µM. Besides, in data set [2], the “Highest safe dose (cytotoxicity; no FO; safe means DAPI+ <20%)” value came to 25.0 µM and the “Max % death with 1 μM FO” value is given as 27.7%.
Regarding `C[C@@]12COC[C@]1(C)CN(C1CCc3ccccc3C1Nc1ncnc3[nH]c(C4CC4)cc13)C2` (stereo partly drawn) [EP-0040542], in data set [1], the EC50 was determined as 1.45 µM. In data set [2], the “Highest safe dose (cytotoxicity; no FO; safe means DAPI+ <20%)” value was 25.0 µM and the “Max % death with 1 μM FO” value is 15.3%.
Take `FC(F)(F)c1cc2c(NC3c4ccccc4OCC3N3CCC4(CCOC4)CC3)ncnc2[nH]1` (stereo not drawn) [EP-0040545]: the EC50 in data set [1] was over 25 µM. In data set [2], the “Highest safe dose (cytotoxicity; no FO; safe means DAPI+ <20%)” value came out at 25.0 µM and the “Max % death with 1 μM FO” value came out at 3.7%.
The corresponding values for `FC(F)(F)c1cc2c(N[C@H]3c4ccccc4CC[C@H]3C3CCOCC3)ncnc2[nH]1` [EP-0040557] are over 25 µM, 25.0 µM and 2.7%.
For the compound `FC(F)(F)c1cc2c(N[C@@H]3c4ccccc4CC[C@@H]3C3CCOCC3)ncnc2[nH]1` [EP-0040558], the EC50 in data set [1] is over 25 µM. Moreover, in data set [2], the “Highest safe dose (cytotoxicity; no FO; safe means DAPI+ <20%)” value is 25.0 µM and the “Max % death with 1 μM FO” value was found to be 3.0%.
`FC(F)(F)c1cc2c(N[C@H]3c4ccccc4OC[C@H]3C3CCOCC3)ncnc2[nH]1` [EP-0040586]: the EC50 in data set [1] was over 25 µM. For the same compound, in data set [2], the “Highest safe dose (cytotoxicity; no FO; safe means DAPI+ <20%)” value is 8.3 µM and the “Max % death with 1 μM FO” value was 16.9%.
Turning to `FC(F)(F)c1cc2c(NC3c4ccccc4CCC3N3CCC4(CCOC4)CC3)ncnc2[nH]1` (stereo not drawn) [EP-0040589], in data set [1], the EC50 was over 25 µM. For the same compound, in data set [2], the “Highest safe dose (cytotoxicity; no FO; safe means DAPI+ <20%)” value came to 25.0 µM and the “Max % death with 1 μM FO” value was determined as 19.4%.
Consider `c1ccc2c(c1)CC[C@@H](C1CCOCC1)[C@H]2Nc1ncnc2[nH]c(C3CC3)cc12` [EP-0040626], for which the EC50 in data set [1] is 7.11 µM. For the same compound, in data set [2], the “Highest safe dose (cytotoxicity; no FO; safe means DAPI+ <20%)” value turned out to be 25.0 µM and the “Max % death with 1 μM FO” value is 29.3%.
The corresponding values for `c1ccc2c(c1)CC[C@H](C1CCOCC1)[C@@H]2Nc1ncnc2[nH]c(C3CC3)cc12` [EP-0040627] are 24.4 µM, 25.0 µM and 4.8%.
For the compound `[O-][S+]1CCN(C2CCc3ccccc3C2Nc2ncnc3[nH]c(C4CC4)cc23)CC1` (stereo not drawn) [EP-0040665], the EC50 in data set [1] came to 9.86 µM. Moreover, in data set [2], the “Highest safe dose (cytotoxicity; no FO; safe means DAPI+ <20%)” value is 25.0 µM and the “Max % death with 1 μM FO” value was determined as 3.7%.
Take `Fc1ccc2c(c1)CC[C@@H](N1C[C@@H]3COC[C@H]3C1)[C@@H]2Nc1ncnc2[nH]c(C(F)(F)F)cc12` [EP-0040696]: the EC50 in data set [1] is 23.4 µM. For the same compound, in data set [2], the “Highest safe dose (cytotoxicity; no FO; safe means DAPI+ <20%)” value came to 25.0 µM and the “Max % death with 1 μM FO” value is recorded as 14.9%.
Take `c1ccc2c(c1)CC[C@@H](C1CCOCC1)[C@@H]2Nc1ncnc2[nH]c(C3CC3)cc12` [EP-0040727]: the EC50 in data set [1] amounted to 2.85 µM. In data set [2], the “Highest safe dose (cytotoxicity; no FO; safe means DAPI+ <20%)” value came to 25.0 µM and the “Max % death with 1 μM FO” value was 7.7%.
The corresponding values for `c1ccc2c(c1)OC[C@H](C1CCOCC1)[C@H]2Nc1ncnc2[nH]c(C3CC3)cc12` [EP-0040728] are 9.4 µM, 25.0 µM and 3.7%.
Take `c1ccc2c(c1)OC[C@@H](C1CCOCC1)[C@H]2Nc1ncnc2[nH]c(C3CC3)cc12` [EP-0040730]: the EC50 in data set [1] is over 25 µM. In data set [2], the “Highest safe dose (cytotoxicity; no FO; safe means DAPI+ <20%)” value was determined as 25.0 µM and the “Max % death with 1 μM FO” value is 8.3%.
Consider `c1ccc2c(c1)OC[C@H](C1CCOCC1)[C@@H]2Nc1ncnc2[nH]c(C3CC3)cc12` [EP-0040731], for which the EC50 in data set [1] was over 25 µM. In data set [2], the “Highest safe dose (cytotoxicity; no FO; safe means DAPI+ <20%)” value turned out to be 25.0 µM and the “Max % death with 1 μM FO” value is 2.7%.
Take `c1ccc2c(c1)CC[C@@H](N1C[C@H]3COC[C@@H]3C1)[C@@H]2Nc1ncnc2[nH]c(C3CC3)cc12` [EP-0040767]: in data set [1], the EC50 was over 25 µM. Moreover, in data set [2], the “Highest safe dose (cytotoxicity; no FO; safe means DAPI+ <20%)” value worked out at 25.0 µM and the “Max % death with 1 μM FO” value was determined as 7.9%.
Take `COC1CN([C@@H]2CCc3ccccc3[C@H]2Nc2ncnc3[nH]c(C(F)(F)F)cc23)C1` [EP-0040858]: in data set [1], the concentration giving a half-maximal response (EC50) is at least 28.8 µM. Moreover, in data set [2], the “Highest safe dose (cytotoxicity; no FO; safe means DAPI+ <20%)” value came to 25.0 µM and the “Max % death with 1 μM FO” value came to 6.6%.
Turning to `C[C@@H]1CN([C@H]2COc3ccccc3[C@@H]2Nc2ncnc3[nH]c(C(F)(F)F)cc23)C[C@H](C)O1` [EP-0040942], the concentration for a half-maximal effect (EC50) in data set [1] was over 25 µM. Moreover, in data set [2], the “Highest safe dose (cytotoxicity; no FO; safe means DAPI+ <20%)” value stood at 25.0 µM and the “Max % death with 1 μM FO” value amounted to 4.7%.
Consider `C[C@@H]1CN([C@H]2COc3ccccc3[C@@H]2Nc2ncnc3[nH]c(C(F)(F)F)cc23)CCO1` [EP-0040955], for which the EC50 in data set [1] was over 25 µM. Moreover, in data set [2], the “Highest safe dose (cytotoxicity; no FO; safe means DAPI+ <20%)” value amounted to 25.0 µM and the “Max % death with 1 μM FO” value was 3.4%.
The corresponding values for `C[C@@H]1CN([C@H]2COc3ccccc3[C@@H]2Nc2ncnc3[nH]c(C4CC4)cc23)CCO1` [EP-0040957] are 22.8 µM, 25.0 µM and 3.8%.
For `C[C@H]1CN([C@H]2COc3ccccc3[C@@H]2Nc2ncnc3[nH]c(C(F)(F)F)cc23)CCO1` [EP-0040979], in data set [1], the EC50 is over 25 µM. Moreover, in data set [2], the “Highest safe dose (cytotoxicity; no FO; safe means DAPI+ <20%)” value was found to be 25.0 µM and the “Max % death with 1 μM FO” value is given as 4.0%.
In the case of `C[C@H]1CN([C@H]2COc3cc(F)ccc3[C@@H]2Nc2ncnc3[nH]c(C(F)(F)F)cc23)CCO1` [EP-0040981], in data set [1], the concentration for a half-maximal effect (EC50) amounted to 2.44 µM. Besides, in data set [2], the “Highest safe dose (cytotoxicity; no FO; safe means DAPI+ <20%)” value amounted to 25.0 µM and the “Max % death with 1 μM FO” value stood at 7.0%.
The corresponding values for `C[C@H]1CN([C@@H]2COc3cc(F)ccc3[C@H]2Nc2ncnc3[nH]c(C(F)(F)F)cc23)CCO1` [EP-0040982] are 7.62 µM, 25.0 µM and 6.1%.
On to `C[C@H]1CN([C@@H]2COc3ccccc3[C@H]2Nc2ncnc3[nH]c(C4CC4)cc23)CCO1` [EP-0041000], for which the EC50 in data set [1] stood at 1.32 µM. In data set [2], the “Highest safe dose (cytotoxicity; no FO; safe means DAPI+ <20%)” value stood at 25.0 µM and the “Max % death with 1 μM FO” value is listed as 6.5%.
